Test system: disseminated L1210 murine leukemia
Assay: Antileukemic activity on disseminated L1210 murine leukemia (in vivo survival)
Design: species or system mouse CD2F1
Conditions: for toxicity (in words): single agents: gemcitabine 15 and 60 mg/kg ip day 1, PNU 159548 1 and 1.5 mg/kg iv day 1
From the text: The superadditive actions of the combination preparation of the present invention may be shown for instance by in vivo tests for the antileukemic activity on disseminated L1210 murine leukemia. The combination of Ia with gemcitabine (Table 1) or 5-Fluorouracil tested at the different doses and schedules, produces favorable ILS% values (Increase in life span: [(median survival time of treated mice/median survival time of controls)x 100]-100), indicating a synergistic effect.
By combining gemcitabine and PNU 159548 at the same doses and with the same schedule, an increase of activity with ILS% values of 117 and 204 were observed, indicating a synergistic effect as shown by the combination index (CI) of […], respectively.
For these experiments Ia was solubilized in [Cremophor® /EtOH = 6.5:3.5]/[normal saline]=20/80 v/v, while standard pharmaceutical preparation were used for the antimetabolite compounds.

[1] = gemcitabine alone, ip day +1, 15 mg/kg/day
[2] = gemcitabine alone, ip day +1, 60 mg/kg/day
[3] = PNU 159548 alone, iv day +1, 1 mg/kg/day
[4] = PNU 159548 alone, iv day +1, 1.5 mg/kg/day

| SMILES | ILS% [1] [%] | LTS: long-term survivors (>60 days) at the end of the experiments [1] | TOX: Number of toxic deaths/number of mice [1] | ILS% [2] [%] | LTS: long-term survivors (>60 days) at the end of the experiments [2] | TOX: Number of toxic deaths/number of mice [2] | toxicity (in words) | LTS: long-term survivors (>60 days) at the end of the experiments [3] | TOX: Number of toxic deaths/number of mice [3] | ILS% (PNU 159548 alone, iv day +1, 1 mg/kg/day, L1210 cells 10^5/mouse IV on Day 0) [%] | ILS% [4] [%] | LTS: long-term survivors (>60 days) at the end of the experiments [4] | TOX: Number of toxic deaths/number of mice [4] |
| --- | --- | --- | --- | --- | --- | --- | --- | --- | --- | --- | --- | --- | --- |
| Nc1ccn([C@@H]2O[C@H](CO)[C@@H](O)C2(F)F)c(=O)n1 [Gemcitabine, gemcitabine] | 50 | 0/10 | 0/10 | 83 | 0/20 | 0/20 | without toxicity | – | – | – | – | – | – |
| CC(=O)[C@]1(O)Cc2c(O)c3c(c(O)c2[C@@H](O[C@H]2C[C@H](N4CC4)[C@H](OS(C)(=O)=O)[C@H](C)O2)C1)C(=O)c1ccccc1C3=O [PNU 159548, 4-demethoxy-3'-deamino-3'-aziridinyl-4'-methansulfonyl daunorubicin] | – | – | – | – | – | – | without toxicity | 0/10 | 0/10 | 33 | 67 | 0/20 | 0/20 |

Reference: EP1200099B1, “SYNERGISTIC COMPOSITION COMPRISING DAUNORUBICIN DERIVATIVES AND ANTI[…]” (Pharmacia Italia S.p.A., priority 1999, dated 2001)
